What all share (format): cell-based
One assay deals with β-tubulin. Description: β-tubulin polymerisation inhibition assay (Human Beta-tubulin ELISA kit) on MDA-MB-231 cells. The settings on record: MDA-MB-231 cell line, each compound at its IC50 concentration. On the procedure:
Trimethoxy phenyl fragment-containing natural stilbenoid-derived molecules, such as Colchicine and CA-4 bind to β-tubulin subunit at the colchicine binding site resulting in inhibition of microtubule assembly and suppression of its formation. […] From the obtained results it can be concluded that the antiproliferative activity of the synthesised triazinone-linked CA-4 derivatives may be derived from the inhibition of microtubule assembly.
Triazinone derivatives 6 and 12 were assessed for their tubulin inhibitory activity according to manufacturer’s instructions using # abcam Human Beta-tubulin simple step ELISA Kit ab245722.
(§1) Part I: Biological Studies
(§2) 4.3. Biological evaluation
(§3) 4.3.1. Cytotoxic activity evaluation
(§4) The cytotoxic actvity of the synthesized derivatives 2a-13e was measured in MDA-MB-231 breast cancer cell line and derivatives 6 and 12 in MCF-10A […].
(§5) Cell viability assay was assessed using MTT assay method. Cells at density of 1 x 104 were seeded in a 96-well plate at 37 °C for 24 h under 5% CO2. After incubation, the cells were treated with different concentrations of the test schiff bases 2a-13e and incubated for 24 h, then 20 µl of MTT solution at 5 mg/mL was applied and incubated for 4 h at 37 °C.
Dimethyl sulphoxide (DMSO) in volume of 100 µl was added to each well to dissolve the purple formazan that had formed. The color intensity of the formazan product, which represents the growth condition of the cells, is quantified by using an ELISA plate reader (EXL 800, USA) at 570 nm absorbance. The experimental conditions were carried out with at least three replicates, and the experiments were repeated at least three times.
4.3.2. Tubulin inhibitions Assay
(§6) Compounds 6, 12 and CA-4 were evaluated for their tubulin inhibitory activity according to manufacturer’s instructions using # abcam Human Beta-tubulin simplestep ELISA Kit ab245722. MDA-MB-231 cells were trypsinized, counted and seeded at the 2 × 105 into 96-well micro titer plates. […]
(§7) (O.D.) was measured at 450±10 nm using microplate reader (Spectromax Plus 96 well plate […]
For orientation: In an ELISA, binding on a coated surface is turned into a signal by an enzyme label.

In the next assay the test system is MDA-MB-231. Description: MTT cytotoxic activity against breast MDA-MB-231 cancer cell line. Particulars: MTT assay, 24 h treatment.
From the text: (§8) All the synthesised compounds were screened for their cytotoxic activity against breast MDA-MB-231 cancer cell line and compounds 6 and 12 against breast MCF-10A cell line taking CA-4 as a positive control for the analysis. The in vitro cytotoxicity results of the prepared compounds were systematised in Table 1. […] Structurally, the prepared molecules contain three structural variations; including rotatable hydrazide derivatives, the core exchange with imidazolone ring, and the ring expansion with triazinone motif. […] It is noticed that directly attached benzene ring to triazinone scaffold (compound 6) or bioisosteric group (thiazolyl ester) as in compound 12, may contribute to the astonishing cytotoxicity against breast MDA-MB-231 cancer cells.
To measure the cytotoxic activity of the synthesised derivatives 2a–13e in breast cancer (MDA-MB-231) cell line. MTT assay method was applied to assess cell viability assay. All experimental steps were conducted as reported earlier.
as §1, §2, §3, §4, §5
Dimethyl sulphoxide (DMSO) in volume of 100 µl was added to each well to dissolve the purple formazan that had formed. The color intensity of the formazan product, which represents the growth condition of the cells, is quantified by using an ELISA plate reader (EXL 800, USA) at 570 nm absorbance. The experimental conditions were carried out with at least three replicates, and the experiments were repeated at least three times. […]
Background: Tetrazolium assays rely on reduction of a dye to a coloured formazan, in cell work by metabolically active cells.

The test system of the next assay is MCF-10A. In words: MTT cytotoxic activity against breast MCF-10A cell line. The settings on record: MTT assay, 24 h treatment.
From the text: as §8, §1, §2, §3, §4, §5
Dimethyl sulphoxide (DMSO) in volume of 100 µl was added to each well to dissolve the purple formazan that had formed. The color intensity of the formazan product, which represents the growth condition of the cells, is quantified by using an ELISA plate reader (EXL 800, USA) at 570 nm absorbance. […]
as §6, §7

Usually IC50 stands for the concentration that gives 50% inhibition.

With `COc1cc(C=C2N=C(c3cc(OC)c(OC)c(OC)c3)N(c3ccccc3)NC2=O)cc(OC)c1OC` [Compound 6, 2-phenyl-5-(3,4,5-trimethoxybenzylidene)-3-(3,4,5-trimethoxyphenyl)-1,2-dihydro-1,2,4-triazin-6(5H)-one], in the assay on β-tubulin, the “% Inhibition of β-tubulin polymerisation” value was determined as 77.61 ± 0.10%. Also, the IC50 with MDA-MB-231 (Homo sapiens, MDA-MB-231) was 1.36 ± 0.1 µM; in the assay on MCF-10A (Homo sapiens, MCF-10A), 19.5 ± 2.15 µM.

With “ethyl 2-(2-(6-oxo-5-(3,4,5-trimethoxybenzylidene)-3–(3,4,5-trimethoxyphenyl)-5,6-dihydro-1,2,4-triazin-2(1H)-yl)thiazol-4-yl)acetate [Compound 12]”, in the assay on β-tubulin, the “% Inhibition of β-tubulin polymerisation” value is 68.28 ± 0.16%. Besides, the IC50 stood at 1.71 ± 0.11 µM in the assay on MDA-MB-231 and 14.6 ± 1.96 µM with MCF-10A.

Values taken from paper PMC9518609, “Design and synthesis of new trimethoxylphenyl-linked combretastatin analogues loaded on diamond nanoparticles as a panel for ameliorated solubility and antiproliferative activity” (Journal of Enzyme Inhibition and Medicinal Chemistry, 2022).
